SMILES strings stand for the structures. Like-named read-outs stand apart in the source and are kept apart here.

Data set [1] relates to S. pyogenes. To be noted: Streptococcus pyogenes, 18 h.
Data set [2] deals with S. pneumonia. Nature of the data set: Bacterial viability by bioluminescent ATP assay, 7 hours culture.
Data set [3] concerns S. pneumonia. The settings on record: Streptococcus pneumonia, 7 h.
The subject of data set [4] is S. pyogenes. Nature of the data set: Bacterial viability by bioluminescent ATP assay, 18 hours culture. To be noted: MSM alone at 8%.

In the case of `C[S+](C)[O-]` [DMSO, Dimethyl sulfoxide], the S. pyogenes viability in data set [1] (0.63 %) was 100%; in data set [1] (1.25 %), 100%; in data set [1] (10 %) it was 14.50%; in data set [1] (20 %), 5.14%; in data set [1] ([…]) it was 100%. Moreover, the “Reduction in bacterial viability” value in data set [2] (DMSO 5% alone) was “approximately 25%”. Besides, the S. pneumonia viability in data set [3] (5 %) is reported as 75.45%; in data set [3] (10 %), 40.18%.
Turning to `CS(C)(=O)=O` [MSM, Methylsulfonylmethane], in data set [4], the “Reduction in bacterial viability (estimated)” value is given as “approximately 89%”. Besides, the “Reduction in bacterial viability” value in data set [2] (MSM 5% alone) is roughly 5%. Besides, the S. pneumonia viability was 48.57% in data set [2] (MSM 10%) and 39.08% in data set [2] (MSM 20%).

Source of the values: patent US10596109B2 (Abela Pharmaceuticals, Inc., priority 2009, dated 2020).
